Measured values published in ChEMBL document CHEMBL1201862, “PubChem BioAssay data set” (2004).
Calls of active or inactive are those of the source.

Key:
[1] = target: G-protein coupled receptor 55 (Homo sapiens, UniProt Q9Y2T6); assay: GPR55 agonists via beta-arrestin recruitment, primary screen, imaging, U2OS cells, beta-arrestin-GFP redistribution (AID 1961); type: functional
[2] = Shn3 3'UTR reporter inhibitors, dose response, cell-based, Clone20 osteoblasts, firefly luciferase, cherry-picked (AID 624132); type: functional;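 note: firefly luciferase luminescence from reporter carrying the Shn3 3'UTR in osteoblasts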
[3] = HepG2 cell cytotoxicity, dose response, cytotoxicity control for Shn3 inhibitor project, CellTiter-Glo, cherry-picked (AID 624134); type: functional, cell-based
[4] = control 3'UTR Renilla luciferase suppression, dose response, counter-screen for Shn3 inhibitor project, cell-based, Clone20-Shn3RL, cherry-picked (AID 624133); type: functional
[5] = target: T1, Polyadenylate-binding protein 1 (Homo sapiens, UniProt P11940); assay: PABP1 MLLE–PAM2 binding inhibitor potency, dose response, biochemical, fluorescence polarization, FITC-PAM2 peptide (AID 602259); type: functional; conditions: read-out: IC50_Mean
[6] = target: T1, Polyadenylate-binding protein 1; assay: PABP1 MLLE–PAM2 interaction inhibitors, dose response, miRNA deadenylation inhibitor project, biochemical, fluorescence polarization, Cy5-PAM2 peptide, secondary (AID 602260); type: functional; conditions: read-out: IC50_Mean
[7] = tested on: INS1; assay: beta cell apoptosis inhibitors, cytokine rescue, dose response, luminescence, retest (AID 449756); type: functional, cell-based; conditions: Rattus norvegicus;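 note: cell death triggered by IL-1 beta plus TNF-alpha plus IFN-gamma mixture; protective hits raise ATP signal compared with cytokine alone wells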
[8] = target: T2, Leucine aminopeptidase (Plasmodium falciparum 3D7, UniProt Q8IL11); assay: P. falciparum M17LAP inhibitors, primary screen, biochemical, fluorogenic H-Leu-NHMec substrate, 1536-well (AID 1619); type: functional
T2 sequence (Q8IL11 whole entry): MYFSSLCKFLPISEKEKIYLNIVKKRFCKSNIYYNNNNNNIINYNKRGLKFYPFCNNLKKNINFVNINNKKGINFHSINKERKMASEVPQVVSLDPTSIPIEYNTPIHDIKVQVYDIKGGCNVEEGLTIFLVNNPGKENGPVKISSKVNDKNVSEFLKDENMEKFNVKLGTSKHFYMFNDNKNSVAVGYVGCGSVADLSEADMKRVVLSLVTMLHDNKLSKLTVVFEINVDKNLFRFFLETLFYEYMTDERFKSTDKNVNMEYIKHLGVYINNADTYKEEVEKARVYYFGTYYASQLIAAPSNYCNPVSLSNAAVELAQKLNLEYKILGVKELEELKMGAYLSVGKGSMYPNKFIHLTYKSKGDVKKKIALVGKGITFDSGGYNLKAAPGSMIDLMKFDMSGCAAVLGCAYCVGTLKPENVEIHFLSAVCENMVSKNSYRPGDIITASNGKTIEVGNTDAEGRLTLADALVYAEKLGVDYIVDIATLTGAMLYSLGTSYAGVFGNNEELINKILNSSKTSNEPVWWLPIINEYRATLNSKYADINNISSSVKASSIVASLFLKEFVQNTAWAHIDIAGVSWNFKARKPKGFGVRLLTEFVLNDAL

[9] = target: Genome polyprotein (dengue virus type 2, UniProt P29990); assay: Dengue-2 NS5 methyltransferase inhibitors, primary screen, biochemical, confirmation dose response (AID 588689); type: functional
[10] = Luminescence Cell-Based Dose Response HTS to Identify Inhibitors of 5'UTR Stem-Loop Driven Prion Protein mRNA Translation in H4 Neuroglioblastoma Cells. [Related pubchem assays: 1827 (Project Summary), 1813 (Primary HTS)]; type: functional
[11] = inhibitors of SNCA 5'UTR-driven reporter translation, confirmation, H4 neuroglioma cells, luminescence (AID 1988); type: functional, cell-based
[12] = inhibitors of firefly luciferase expression or activity, dose response, H4 neuroglioma cells, luminescence (AID 1990); type: functional, cell-based
[13] = growth suppression of PTEN-null colon cells, dose response, cell-based, HCT116 PTEN knockout (AID 1047); type: functional;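 note: HCT116 colon tumor cells with PTEN knocked out; cells exposed to compound for 60 hours before readout; potency for loss of cell viability measured by luminescence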
[14] = target: Cytochrome P450 2C9 (Homo sapiens, UniProt P11712)
[15] = target: Cytochrome P450 2D6 (Homo sapiens, UniProt P10635);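 note: CYP2D6 member of a cytochrome P450 panel assay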
[16] = target: Cytochrome P450 3A4 (Homo sapiens, UniProt P08684);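 note: CYP3A4 tested as one member of a cytochrome P450 panel screen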
[17] = growth suppression of beta-catenin-knockout colon cells, dose response, cell-based, HCT116, human colon tumor (AID 1045); type: functional;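 note: HCT116 colon tumor cells with beta catenin knocked out; cells exposed to compound for 60 hours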
[18] = tested on: Escherichia coli; assay: microbe, parasite or virus in culture
[19] = target: T3, Heat shock factor protein 1 (Mus musculus, UniProt P38532); assay: HSF1 potentiators in luciferase reporter cells, confirmation, cell-based, NIH3T3, luminescence, dose retest (AID 435004); type: functional;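 note: stress induced by proteasome inhibitor MG132 added 30 min after compound; luciferase reporter driven by HSF1 response element in NIH3T3 cells; actives raise luminescence as potentiators of the MG132 stress response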
T3 sequence (P38532 whole entry): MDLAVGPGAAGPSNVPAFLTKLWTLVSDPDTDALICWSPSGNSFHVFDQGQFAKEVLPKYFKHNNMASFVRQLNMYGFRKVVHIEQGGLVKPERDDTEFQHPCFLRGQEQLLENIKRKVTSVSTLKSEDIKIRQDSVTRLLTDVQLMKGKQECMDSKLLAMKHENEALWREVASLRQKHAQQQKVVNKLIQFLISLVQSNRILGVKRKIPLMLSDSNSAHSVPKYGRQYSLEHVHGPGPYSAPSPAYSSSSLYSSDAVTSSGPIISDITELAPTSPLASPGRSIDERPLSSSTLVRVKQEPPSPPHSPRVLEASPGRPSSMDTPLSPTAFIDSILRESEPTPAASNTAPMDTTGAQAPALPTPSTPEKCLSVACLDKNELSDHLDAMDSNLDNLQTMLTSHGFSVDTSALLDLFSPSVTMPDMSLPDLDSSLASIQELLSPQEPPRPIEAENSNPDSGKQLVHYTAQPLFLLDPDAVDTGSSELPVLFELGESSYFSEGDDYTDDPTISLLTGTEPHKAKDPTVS

[20] = target: T4, Replicative DNA helicase DnaB (Mycobacterium tuberculosis, UniProt P9WMR3); assay: DnaB intein splicing inhibitors, dose response, biochemical, cell-free fluorescence (AID 449749); type: functional
T4 sequence (P9WMR3 whole entry): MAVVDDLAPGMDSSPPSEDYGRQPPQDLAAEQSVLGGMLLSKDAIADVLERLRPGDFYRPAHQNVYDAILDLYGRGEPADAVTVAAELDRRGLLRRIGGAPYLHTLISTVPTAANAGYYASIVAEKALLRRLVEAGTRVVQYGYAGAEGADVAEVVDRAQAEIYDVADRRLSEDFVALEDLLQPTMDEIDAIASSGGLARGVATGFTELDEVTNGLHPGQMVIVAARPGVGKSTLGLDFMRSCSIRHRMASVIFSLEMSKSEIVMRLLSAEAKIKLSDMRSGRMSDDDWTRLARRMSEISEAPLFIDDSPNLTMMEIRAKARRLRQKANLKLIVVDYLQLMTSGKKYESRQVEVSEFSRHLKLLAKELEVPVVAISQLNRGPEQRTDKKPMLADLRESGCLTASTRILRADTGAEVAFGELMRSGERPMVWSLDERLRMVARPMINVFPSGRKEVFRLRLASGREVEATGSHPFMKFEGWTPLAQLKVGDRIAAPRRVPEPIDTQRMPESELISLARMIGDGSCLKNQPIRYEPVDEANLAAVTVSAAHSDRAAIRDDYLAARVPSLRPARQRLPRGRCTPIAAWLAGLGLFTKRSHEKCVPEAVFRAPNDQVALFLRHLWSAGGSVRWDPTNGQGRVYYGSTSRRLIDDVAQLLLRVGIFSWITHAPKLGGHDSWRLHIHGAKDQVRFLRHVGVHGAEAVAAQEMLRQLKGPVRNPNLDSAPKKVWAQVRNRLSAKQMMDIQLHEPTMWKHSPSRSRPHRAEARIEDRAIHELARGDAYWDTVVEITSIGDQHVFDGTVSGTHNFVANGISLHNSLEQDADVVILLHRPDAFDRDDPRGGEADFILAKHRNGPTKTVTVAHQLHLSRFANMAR

[21] = target: T5, Protein RecA (Mycobacterium tuberculosis, UniProt P9WHJ3); assay: Fluorescence Cell-Free Homogeneous Dose Retest to Identify Inhibitors of RecA-Intein Splicing Activity. [Related pubchem assays (depositor defined):AID2097, AID2223, AID489010, AID492950]; type: functional
T5 sequence (P9WHJ3 whole entry): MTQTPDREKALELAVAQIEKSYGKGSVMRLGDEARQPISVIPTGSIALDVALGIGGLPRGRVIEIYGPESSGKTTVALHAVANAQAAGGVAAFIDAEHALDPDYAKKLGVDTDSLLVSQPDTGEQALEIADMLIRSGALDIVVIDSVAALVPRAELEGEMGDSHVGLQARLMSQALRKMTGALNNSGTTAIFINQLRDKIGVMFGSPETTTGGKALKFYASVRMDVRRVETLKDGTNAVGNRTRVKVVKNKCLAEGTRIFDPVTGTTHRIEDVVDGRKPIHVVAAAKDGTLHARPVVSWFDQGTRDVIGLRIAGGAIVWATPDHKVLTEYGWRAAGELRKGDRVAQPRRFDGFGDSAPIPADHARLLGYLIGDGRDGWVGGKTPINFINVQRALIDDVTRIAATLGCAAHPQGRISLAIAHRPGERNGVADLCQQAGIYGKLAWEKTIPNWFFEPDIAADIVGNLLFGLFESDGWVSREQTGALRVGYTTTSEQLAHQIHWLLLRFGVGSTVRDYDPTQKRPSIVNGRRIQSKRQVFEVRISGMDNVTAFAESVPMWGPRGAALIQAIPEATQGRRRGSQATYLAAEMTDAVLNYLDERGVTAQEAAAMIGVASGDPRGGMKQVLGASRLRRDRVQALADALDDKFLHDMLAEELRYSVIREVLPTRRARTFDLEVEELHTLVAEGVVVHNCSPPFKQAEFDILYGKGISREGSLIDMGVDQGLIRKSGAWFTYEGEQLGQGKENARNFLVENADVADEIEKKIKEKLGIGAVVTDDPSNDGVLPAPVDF

[22] = target: Cytochrome P450 2C19 (Homo sapiens, UniProt P33261); assay: Cytochrome panel assay with activity outcomes. Panel member name: p450-cyp2c19 Compounds with AC50 equal or less than 10 uM are considered active; type: functional; conditions: read-out: AC50
[23] = target: DNA (cytosine-5)-methyltransferase 1 (Homo sapiens, UniProt P26358); assay: DNMT1 methyltransferase inhibitors, confirmation, biochemical, fluorescent molecular beacon (AID 602386); type: functional
Sequence of DNA (cytosine-5)-methyltransferase 1 (P26358 whole entry): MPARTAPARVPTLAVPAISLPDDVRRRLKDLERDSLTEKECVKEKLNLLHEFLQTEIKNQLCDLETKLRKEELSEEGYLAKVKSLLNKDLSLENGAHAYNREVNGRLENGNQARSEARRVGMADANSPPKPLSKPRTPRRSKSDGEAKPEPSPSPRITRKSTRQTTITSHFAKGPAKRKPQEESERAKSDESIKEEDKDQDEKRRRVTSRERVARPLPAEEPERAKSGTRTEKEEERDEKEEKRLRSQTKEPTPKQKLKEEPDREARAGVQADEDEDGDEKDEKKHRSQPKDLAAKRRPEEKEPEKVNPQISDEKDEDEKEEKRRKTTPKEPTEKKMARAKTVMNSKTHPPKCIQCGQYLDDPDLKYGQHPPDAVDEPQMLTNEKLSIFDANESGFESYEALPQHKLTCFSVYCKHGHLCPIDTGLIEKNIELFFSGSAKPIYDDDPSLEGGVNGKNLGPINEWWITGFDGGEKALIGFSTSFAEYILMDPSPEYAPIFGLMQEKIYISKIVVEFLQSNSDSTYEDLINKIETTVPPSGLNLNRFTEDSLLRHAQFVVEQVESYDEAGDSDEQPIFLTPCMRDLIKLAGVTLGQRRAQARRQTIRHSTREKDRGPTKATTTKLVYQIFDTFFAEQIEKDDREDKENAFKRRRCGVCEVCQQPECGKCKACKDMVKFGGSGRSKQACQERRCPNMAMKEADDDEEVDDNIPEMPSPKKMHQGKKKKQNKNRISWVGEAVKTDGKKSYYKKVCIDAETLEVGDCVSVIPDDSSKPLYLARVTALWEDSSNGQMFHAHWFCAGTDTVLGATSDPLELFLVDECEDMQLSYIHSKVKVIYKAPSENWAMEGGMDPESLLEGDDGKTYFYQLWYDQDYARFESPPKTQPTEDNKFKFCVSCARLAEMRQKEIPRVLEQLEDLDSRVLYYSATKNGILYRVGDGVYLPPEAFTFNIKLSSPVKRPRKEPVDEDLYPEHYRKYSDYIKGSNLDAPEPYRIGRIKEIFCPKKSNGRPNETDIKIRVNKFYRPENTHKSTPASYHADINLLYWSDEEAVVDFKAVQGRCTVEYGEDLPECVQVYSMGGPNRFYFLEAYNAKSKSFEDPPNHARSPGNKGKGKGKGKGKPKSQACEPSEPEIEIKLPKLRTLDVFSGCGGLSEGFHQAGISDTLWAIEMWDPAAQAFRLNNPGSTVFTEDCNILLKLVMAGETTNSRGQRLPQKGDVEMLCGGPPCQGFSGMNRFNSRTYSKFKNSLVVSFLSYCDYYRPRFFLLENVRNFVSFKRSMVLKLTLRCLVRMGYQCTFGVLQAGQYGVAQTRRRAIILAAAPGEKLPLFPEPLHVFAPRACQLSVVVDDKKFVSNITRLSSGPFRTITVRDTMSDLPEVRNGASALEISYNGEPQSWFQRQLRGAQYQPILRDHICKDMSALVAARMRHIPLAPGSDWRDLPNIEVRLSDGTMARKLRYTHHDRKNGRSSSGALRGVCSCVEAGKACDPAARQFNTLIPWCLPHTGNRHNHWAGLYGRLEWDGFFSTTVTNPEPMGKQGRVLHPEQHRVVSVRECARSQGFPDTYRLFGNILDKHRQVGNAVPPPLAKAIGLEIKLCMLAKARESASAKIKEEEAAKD

Sequence of G-protein coupled receptor 55 (Q9Y2T6 whole entry): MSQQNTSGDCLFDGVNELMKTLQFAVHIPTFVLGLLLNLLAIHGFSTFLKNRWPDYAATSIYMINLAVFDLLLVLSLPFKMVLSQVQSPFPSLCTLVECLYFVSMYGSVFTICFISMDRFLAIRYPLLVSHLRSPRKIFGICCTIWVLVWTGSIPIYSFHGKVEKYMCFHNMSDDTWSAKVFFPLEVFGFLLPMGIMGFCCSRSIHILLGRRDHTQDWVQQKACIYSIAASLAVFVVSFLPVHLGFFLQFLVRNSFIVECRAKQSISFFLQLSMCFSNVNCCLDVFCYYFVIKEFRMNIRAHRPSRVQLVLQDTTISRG
Sequence of Genome polyprotein (P29990 2492-3391 limits assumed): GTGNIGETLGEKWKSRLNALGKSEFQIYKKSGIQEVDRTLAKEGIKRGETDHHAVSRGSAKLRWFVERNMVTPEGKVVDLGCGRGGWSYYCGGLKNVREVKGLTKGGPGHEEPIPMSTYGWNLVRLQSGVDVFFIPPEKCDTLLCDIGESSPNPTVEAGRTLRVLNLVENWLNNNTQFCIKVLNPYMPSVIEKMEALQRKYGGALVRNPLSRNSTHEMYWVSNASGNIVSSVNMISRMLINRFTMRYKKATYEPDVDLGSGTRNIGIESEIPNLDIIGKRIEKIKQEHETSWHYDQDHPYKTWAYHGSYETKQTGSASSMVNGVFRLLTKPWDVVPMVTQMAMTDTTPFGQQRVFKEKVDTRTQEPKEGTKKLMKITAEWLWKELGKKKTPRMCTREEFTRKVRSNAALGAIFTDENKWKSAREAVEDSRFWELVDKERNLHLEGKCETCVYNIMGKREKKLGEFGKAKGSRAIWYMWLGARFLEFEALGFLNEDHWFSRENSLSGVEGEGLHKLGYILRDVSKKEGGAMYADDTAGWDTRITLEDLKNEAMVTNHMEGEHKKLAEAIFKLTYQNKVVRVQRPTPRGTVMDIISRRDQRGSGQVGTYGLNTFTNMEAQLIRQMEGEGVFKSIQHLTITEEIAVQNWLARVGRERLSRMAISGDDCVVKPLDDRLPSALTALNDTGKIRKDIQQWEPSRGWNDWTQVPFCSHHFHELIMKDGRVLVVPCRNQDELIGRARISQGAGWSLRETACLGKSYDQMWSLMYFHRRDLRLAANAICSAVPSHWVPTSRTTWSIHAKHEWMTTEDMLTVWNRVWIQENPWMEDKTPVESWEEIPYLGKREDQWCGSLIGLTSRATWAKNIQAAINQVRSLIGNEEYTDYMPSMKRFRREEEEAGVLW
T1 sequence (P11940 whole entry): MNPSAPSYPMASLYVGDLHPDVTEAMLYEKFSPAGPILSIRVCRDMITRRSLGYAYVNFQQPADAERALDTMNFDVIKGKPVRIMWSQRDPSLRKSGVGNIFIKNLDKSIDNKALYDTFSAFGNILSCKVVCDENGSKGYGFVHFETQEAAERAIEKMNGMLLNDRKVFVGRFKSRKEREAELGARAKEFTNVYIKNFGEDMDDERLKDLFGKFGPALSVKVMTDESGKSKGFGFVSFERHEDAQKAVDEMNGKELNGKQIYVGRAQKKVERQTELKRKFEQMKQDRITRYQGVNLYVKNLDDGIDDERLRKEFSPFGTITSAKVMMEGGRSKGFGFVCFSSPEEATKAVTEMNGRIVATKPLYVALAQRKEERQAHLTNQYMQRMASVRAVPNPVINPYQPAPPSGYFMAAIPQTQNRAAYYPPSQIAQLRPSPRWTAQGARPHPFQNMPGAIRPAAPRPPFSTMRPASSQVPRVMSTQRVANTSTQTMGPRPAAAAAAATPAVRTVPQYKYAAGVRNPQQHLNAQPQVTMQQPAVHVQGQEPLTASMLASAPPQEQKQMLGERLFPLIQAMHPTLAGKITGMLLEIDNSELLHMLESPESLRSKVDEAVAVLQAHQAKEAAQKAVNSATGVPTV
Sequence of Cytochrome P450 2C19 (P33261 whole entry): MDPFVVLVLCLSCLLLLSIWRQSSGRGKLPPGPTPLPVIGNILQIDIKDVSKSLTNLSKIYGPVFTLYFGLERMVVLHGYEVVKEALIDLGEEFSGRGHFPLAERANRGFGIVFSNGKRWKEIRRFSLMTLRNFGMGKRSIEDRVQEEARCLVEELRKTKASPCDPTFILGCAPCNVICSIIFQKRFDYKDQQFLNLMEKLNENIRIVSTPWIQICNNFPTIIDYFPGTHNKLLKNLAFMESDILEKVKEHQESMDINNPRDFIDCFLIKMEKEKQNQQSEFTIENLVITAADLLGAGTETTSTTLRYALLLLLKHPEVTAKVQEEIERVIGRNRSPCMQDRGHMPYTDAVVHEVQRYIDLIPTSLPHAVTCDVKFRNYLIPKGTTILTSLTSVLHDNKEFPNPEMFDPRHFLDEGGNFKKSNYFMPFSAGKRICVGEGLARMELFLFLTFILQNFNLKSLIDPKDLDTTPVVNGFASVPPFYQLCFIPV
Sequence of Cytochrome P450 3A4 (P08684 whole entry): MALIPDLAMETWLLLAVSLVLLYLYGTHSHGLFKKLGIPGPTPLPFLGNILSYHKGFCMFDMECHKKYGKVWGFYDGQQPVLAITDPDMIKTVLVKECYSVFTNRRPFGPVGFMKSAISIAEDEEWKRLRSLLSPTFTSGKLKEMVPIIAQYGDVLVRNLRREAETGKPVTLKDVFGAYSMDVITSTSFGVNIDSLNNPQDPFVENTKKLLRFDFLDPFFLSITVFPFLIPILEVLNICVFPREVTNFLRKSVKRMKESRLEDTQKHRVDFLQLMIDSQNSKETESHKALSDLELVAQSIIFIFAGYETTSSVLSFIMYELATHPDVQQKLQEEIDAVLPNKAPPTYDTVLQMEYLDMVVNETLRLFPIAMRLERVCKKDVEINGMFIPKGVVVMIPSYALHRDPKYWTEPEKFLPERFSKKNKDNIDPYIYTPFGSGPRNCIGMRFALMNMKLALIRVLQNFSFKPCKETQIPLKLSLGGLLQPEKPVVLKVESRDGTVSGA
Sequence of Cytochrome P450 2D6 (P10635 whole entry): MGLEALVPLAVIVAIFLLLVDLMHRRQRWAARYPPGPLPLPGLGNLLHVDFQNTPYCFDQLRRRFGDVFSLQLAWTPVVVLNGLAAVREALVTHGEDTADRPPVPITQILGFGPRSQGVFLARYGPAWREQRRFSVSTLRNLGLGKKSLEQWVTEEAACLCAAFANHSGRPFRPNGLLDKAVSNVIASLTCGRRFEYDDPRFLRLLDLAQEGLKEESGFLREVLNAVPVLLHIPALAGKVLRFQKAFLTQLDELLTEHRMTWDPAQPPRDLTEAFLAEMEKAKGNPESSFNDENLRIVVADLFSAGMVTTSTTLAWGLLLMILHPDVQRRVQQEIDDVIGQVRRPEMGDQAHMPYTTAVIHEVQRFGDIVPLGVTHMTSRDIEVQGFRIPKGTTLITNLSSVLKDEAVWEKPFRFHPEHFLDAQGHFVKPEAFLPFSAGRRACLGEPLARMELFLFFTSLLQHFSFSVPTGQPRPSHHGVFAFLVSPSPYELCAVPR

In the case of `CCc1noc(C)c1C(=O)Nc1nc(-c2ccc(Cl)cc2Cl)cs1`, the EC50 [1] is reported as 3.56 µM (active).

For `O=C(Nc1cccc(Cl)c1Cl)C1CC(=O)N(c2ccc(Br)cc2)C1` (stereo not given), the AC50 [2] was 8.23 µM (active), the AC50 [3] was 38.4 µM (active) and the AC50 [4] was 9.56 µM (active).

For `COc1ccc(NC(=O)c2ccco2)cn1`, the IC50 [5] was 34.1 µM (inactive) and the IC50 [6] was > 66 µM (inactive).

With `Cc1ccc(-n2ncc3c2CCCC3NC(=O)c2ocnc2C)cc1C` (stereo not given) the AC50 [2] was 1.29 µM (active), the AC50 [3] was 0.594 µM (active) and the AC50 [4] was 3.35 µM (active). For the same molecule, the AC50 [7] was 3.69 µM (active).

For `CCCCCCSc1nc(O)c(C2OC(=O)c3c2ccc(OC)c3OC)c(=O)n1-c1ccccc1` (stereo not given), the IC50 [8] was 4.82 µM (active) and the IC50 [9] was 30.2 µM (active).

With `CC(C)(C)NC(=O)CSc1nc2ccc(NC(=O)CSc3nnnn3Cc3ccccc3)cc2s1` the AC50 [2] was 3.26 µM (active), the AC50 [3] was 53 µM (active) and the AC50 [4] was 6.81 µM (active).

In the case of `CCOc1cc(C(=O)CSc2nnc(CNc3ccc(Cl)cc3)o2)ccc1NC(=O)CC`, the EC50 [10] is reported as 23 µM (active), the EC50 [11] is reported as 7.28 µM (active) and the AC50 [2] is reported as 7.73 µM (active). For the same molecule, the AC50 [3] was 29.5 µM (active), the AC50 [4] was 36.5 µM (active) and the EC50 [12] was > 120 µM (not active).

For `COc1ccccc1/C=C/C(=O)c1ccc(Cl)cc1`, the EC50 [1] was 25.5 µM (inactive), the EC50 [13] was 23.5 µM (active) and the AC50 [14] was 22.4 µM (inconclusive). The AC50 [15] was 15.8 µM (inconclusive), the AC50 [16] was 28.2 µM (inconclusive) and the EC50 [17] was 21.8 µM (active).

For `c1ccc(-n2c(SCC3CCCCO3)nnc2-c2cccs2)cc1` (stereo not given), the AC50 [18] was 24.4 µM (active).

In the case of `COc1ccc2nc3cc(Cl)ccc3c(Nc3cc(C(C)C)c(O)cc3C)c2c1`, the EC50 [1] is reported as 1 µM (active), the EC50 [19] is reported as 154 µM (active) and the AC50 [20] is reported as > 380 µM (inactive). For the same molecule, the EC50 [21] was 0.318 µM (active).

With `CCCCN(CCCC)C(=O)c1cn(CC)c2cc(N3CCN(C)CC3)c(F)cc2c1=O` the AC50 [18] was 1.67 µM (active).

In the case of `O=C(O)CSC1CC(=O)N(c2ccc(Cl)c(Cl)c2)C1=O` (stereo not given), the IC50 [5] is reported as > 66 µM (inactive) and the IC50 [6] is reported as > 66 µM (inactive).

In the case of `CCCCc1c(O)n(-c2ccccc2)c(SCCN(C)C)nc1=O`, the AC50 [22] is reported as 6.31 µM (inconclusive), the IC50 [5] is reported as > 66 µM (inactive) and the IC50 [6] is reported as > 66 µM (inactive).

With `O=C(CCc1nc(O)c2ccccc2n1)OCC(=O)c1cccc(Cl)c1` the AC50 [18] was 41.4 µM (active).

In the case of `CCOC(=O)c1nn(-c2ccc(F)cc2)c(=O)cc1OCC(=O)Nc1ccc(OCC)cc1`, the IC50 [23] is reported as > 99 µM (inactive).

In the case of `COc1ccc(S(=O)(=O)CC(=O)c2cc3cccc(C)c3oc2=O)cc1`, the IC50 [9] is reported as 78.1 µM (active).

In the case of `CC(C)(CNC(=O)c1ccc(Cl)c(S(=O)(=O)N2CCc3ccccc3C2)c1)N1CCOCC1`, the AC50 [2] is reported as 10.5 µM (active) and the AC50 [3] is reported as 2.14 µM (active).

For `O=C(CCSc1nnc(-c2ccco2)o1)N1CCOCC1`, the AC50 [18] was 119 µM (active).

With `COc1ccc(CC(N)c2csc(NC(=O)Nc3ccc(C(C)C)cc3)n2)cc1` (stereo not given) the AC50 [2] was 5.16 µM (active), the AC50 [3] was 10.9 µM (active) and the AC50 [4] was 11.9 µM (active).

For `Cc1[nH]n(-c2ccccc2)c(=O)c1C(c1cccc([N+](=O)[O-])c1)c1c(C)[nH]n(-c2ccccc2)c1=O`, the AC50 [20] was 3.28 µM (active), the EC50 [21] was 0.805 µM (active) and the IC50 [9] was 52.9 µM (active).
